Data as given in patent publication US12310929B2, “Use of rasagiline for the treatment of restless legs syndrome” (TEVA PHARMACEUTICAL INDUSTRIES, LTD., priority 2006, dated 2025).

Experiments:
[1] = system: 6-hydroxydopamine lesioned rats; conditions: treated lesioned rats compared with untreated lesioned rats
Experimental: 6-hydroxydopamine is an agent that selectively disrupts or destroys catecholaminergic systems. Thus, stereotaxic bilateral 6-hydroxydopamine lesions into the nucleus of dopaminergic diencephalic spinal neurons (A11) are performed to effect behavior consistent, although not specific, with what would be expected in a rat model of RLS. (Ondo W. G. et al., Clinical Correlates of 6-Hydroxydopamine Injections into A11 Dopaminergic Neurons in Rats: A Possible Model for Restless Leg Syndrome, Mov. Disord., 2000, 15(1):154-8)

RLS = conditions: treatment of RLS; cited from earlier work

| Structure (SMILES) | number of standing episodes [1] | total standing time [1] | quality of sleep, frequency of waking up, periodic leg movement during sleep (RLS) | soporiferous latency (RLS) |
| --- | --- | --- | --- | --- |
| C#CCN[C@@H]1CCc2ccccc21.CS(=O)(=O)O [R(+)PAI mesylate, R(+)-N-propargyl-1-aminoindan mesylate] | fewer standing episodes | less total standing time |  |  |
| Clc1cccc(Cl)c1N=C1NCCN1 [Clonidine] |  |  | no effect | reduced |
